The record followed here is ChEMBL document CHEMBL3044589, “Effects of propylene oxide doses on Cyperus and Belonolaimus control and nutrient absorption in tomato” (2007).

Calls of active or inactive are those of the source. The calls are words filed in the database; no cut-off is given here.

Assay [1] concerns Solanum lycopersicum. The assay can be described thus: Increase in Solanum lycopersicum (tomato) plant yield at […] applied 12 days prior to transplantation measured after 12 to 14 weeks relative to untreated-control. In kind it is functional.
The test system of assay [2] is Solanum lycopersicum. The assay is described as follows: Increase in Solanum lycopersicum (tomato) plant vigor at 190 to 950 l/ha applied 12 days prior to transplantation measured after 10 weeks. The format is functional, organism-based.
Assay [3] has as its system Cyperus. The assay can be described thus: Herbicidal activity against Cyperus at 190 l/ha applied 12 days prior to tomato transplantation measured after 4 weeks relative to control. In kind it is functional.
Assay [4] has as its system Cyperus. The assay is described as follows: Herbicidal activity against Cyperus at 850 l/ha applied 12 days prior to tomato transplantation measured after 14 weeks relative to control. In kind it is functional.
Assay [5] concerns Solanum lycopersicum. The assay can be described thus: Increase in Solanum lycopersicum (tomato) plant yield at 190 to 950 l/ha applied 12 days prior to transplantation measured after 12 to 14 weeks. In kind it is functional, organism-based.
In assay [6] the test system is Cyperus. The assay is described as follows: Herbicidal activity against Cyperus at 775 l/ha applied 12 days prior to tomato transplantation measured after 8 weeks relative to control. The format is functional.
Assay [7] concerns Cyperus. The assay can be described thus: Herbicidal activity against Cyperus at 190 to 950 l/ha applied 12 days prior to tomato transplantation measured after 4 to 14 weeks relative to control. The format is functional, organism-based.
For assay [8], the system named is Belonolaimus. The assay can be described thus: Nematocidal activity against Belonolaimus at 190 to 950 l/ha applied 12 days prior to tomato transplantation measured after 14 weeks. The format is functional, organism-based.
In assay [9] the test system is Solanum lycopersicum. The assay can be described thus: Increase in Solanum lycopersicum (tomato) plant yield at 760 l/ha applied 12 days prior to transplantation measured after 12 to 14 weeks relative to untreated-control. In kind it is functional.
For assay [10], the system named is Solanum lycopersicum. The assay is described as follows: Increase in Solanum lycopersicum (tomato) foliar phosphorus concentration at 190 to 950 l/ha applied 12 days prior to transplantation measured after 4 weeks (reference value: 0.31%). The format is functional.
The subject of assay [11] is Solanum lycopersicum. The assay can be described thus: Increase in Solanum lycopersicum (tomato) foliar potassium concentration at 190 to 950 l/ha applied 12 days prior to transplantation measured after 4 weeks (reference value: 2.38%). The format is functional.

`CC1CO1` (stereo unspecified) [PROPYLENE OXIDE]: the “fold change (FC)” value in assay [1] came to 3.5; in assay [9], 4.1. Further, the result in assay [2], in assay [5], in [7] and in [8] was Active. Besides, the Activity in assay [3] came to 80%; in [4], 80%; in assay [6], 80%; in assay [10] it was 0.51%; in [11], 3.25%.
